The values below come from US7951775B2, “Methods and pharmaceutical compositions for GnRH-I and GnRH-II modulation of T-cell activity, adhesion, migration and extravasation” (priority 2001, dated 2011).

Structures are written as SMILES. Where a SMILES comes first, the peptide text is derived from it. [ ]: non-standard residue; d: D form. dPhe(4-Cl) = N[C@H](Cc1ccc(Cl)cc1)C(=O)O; d2Nal = N[C@H](Cc1ccc2ccccc2c1)C(=O)O; dCit = NC(=O)NCCC[C@@H](N)C(=O)O; d3Pal = N[C@H](Cc1cccnc1)C(=O)O

Assay [1] concerns normal human T-cells. The assay is described as follows: Quantitative RT-PCR of 67 kDa laminin receptor mRNA in T-cells. Type of assay: cell-based.
The test system of assay [2] is normal human T-cells. The assay is described as follows: Double immunofluorescence staining (FACS) for surface 67 kDa laminin receptor and TCR. Type of assay: cell-based. As for the experimental part:
Normal human T-cells, isolated from fresh peripheral blood lymphocytes, or EL-4 T-lymphocyte cells were subjected to double immunofluorescence staining, using a mouse monoclonal anti-67 kDa LR antibody (100 μl of 1:20 dilution per 1×10^6 cells/tube; 30 minutes on ice), or normal mouse sera for control. The cells were then stained with an FITC-conjugated goat anti-mouse IgG (100 μl of 1:100 dilution), and PE-conjugated mouse anti-human TCR αβ mAb (2 μl of stock). Cells that were stained only with the second and third antibodies served as additional negative controls. Fluorescence profiles were recorded in a FACSORT. To determine whether GnRH-II and GnRH-I trigger not only the gene transcription but also the surface expression of the 67 kDa LR, normal human T-cells were treated with either GnRH-II or GnRH-I for 18-66 h and subjected to double immunofluorescence staining using a monoclonal antibody (mAb) that is specific for the 67 kDa LR, and a phycoerythrin (PE)-conjugated anti-TCRαβ mAb (to confirm the T-cell origin of the cells). FIGS. 2A-2C show the staining for the untreated, GnRH-I treated and GnRH-II treated T-cells, respectively. The FACS profiles can be interpreted by division according to four categories: 1. Negative staining for both mAbs (double negative, lower left quadrant); 2. Single positive staining only with the anti-LR mAb (lower right quadrant), 3. Single positive staining only with the anti-TCR mAb (upper left quadrant); 4. Double positive staining with both mAbs (upper right quadrant). […] In different experiments, each using freshly isolated T-cells from a different human donor, both GnRH II and GnRH I repeatedly elevated the laminin receptor expression level, but the magnitude of elevation varied within a range of 6-40%. Such variations between T-cell populations originating from different donors are often observed in respect to various T-cell features and functions.

Consider `CC(=O)N[C@H](Cc1ccc2ccccc2c1)C(=O)N[C@H](Cc1ccc(Cl)cc1)C(=O)N[C@H](Cc1cccnc1)C(=O)N[C@@H](CO)C(=O)N[C@@H](Cc1ccc(O)cc1)C(=O)N[C@H](CCCNC(N)=O)C(=O)N[C@@H](CC(C)C)C(=O)N[C@@H](CCCNC(=N)N)C(=O)N1CCC[C@H]1C(=O)N[C@H](C)C(N)=O` [Cetrorelix, reference compound] (Ac-[d2Nal][dPhe(4-Cl)][d3Pal]SY[dCit]LRP[dA]-NH2), for which the “block of GnRH-I induced upregulation in gene expression of the 67 kDa LR” value in assay [1] (100 nM Cetrorelix + 10 nM GnRH-I (FIG. 2D)) is on record as “blocked”. The “block of GnRH-II effect on gene expression of the 67 kDa LR” value in assay [1] (100 nM Cetrorelix + 10 nM GnRH-II (FIG. 2D)) is “did not block”. Further, the “block of GnRH-I induced upregulation in surface expression of the 67 kDa LR” value in assay [2] (100 nM Cetrorelix + 10 nM GnRH-I (FIG. 2E)) is reported as “blocked”. Moreover, in assay [2] (100 nM Cetrorelix + 10 nM GnRH-II (FIG. 2E)), the “block of GnRH-II effect on surface expression of the 67 kDa LR” value was “did not block”.
